Reference: patent US12630512B2, “Agents for differentiating stem cells and treating cancer” (Minerva Biotechnologies Corporation, priority 2017, dated 2026)

Tests used:
[1] = tested on: human naïve state stem cells; experiment: Stem cell drug screen on naïve state stem cells (pluripotency, proliferation, differentiation); type: cell-based; design: key to score for inhibition of naïve stem cell pluripotency and proliferation: 0 being no change in morphology or cell number; 4 being the most profound effect; settings: naïve state stem cells; for inhibition at 6 µM: Homo sapiens, 6 uM final concentration per FIGS. 46-64, read-out: inhibited naïve stem cell pluripotency and proliferation; for score for inhibition of naïve stem cell pluripotency and proliferation: scored by eye 0-4, 6 uM per FIGS. 46-64
Procedure: The stem cell screening assay, was performed in both the presence and absence of the stem cell growth factors: NME7AB for growing naïve stem cells or FGF for growing primed stem cells. If the cognate growth factor was present, then the biological or small molecule would have to compete away the growth factor to get an effect. Therefore, we expected to see more of an effect when the growth factor, FGF for primed stem cells or NME7AB or NME1 dimers for naïve stem cells, was absent. The effect of the compounds on stem cells was visually determined and compounds were ranked 0-4, with 4 being the greatest effect and 0 being no observable effect. The major effect that was observed was a change from pluripotent stem cell morphology, which is a cobblestone pattern of small round cells with a large nucleus to cytoplasm ratio, to that of differentiating stem cells, which are elongated, large and flattened cells with a smaller nucleus to cytoplasm ratio. […] The compounds were added to a final concentration of 6 uM to either naïve state stem cells or primed state stem cells. In this particular case, the naïve state stem cells were maintained in a naïve state by culturing in a media containing NME7AB or NME1 dimers. However, other methods such as 2i and 5i (Silva et al., 2008, Nichols and Smith, 2009, Theunissen et al., 2014)] can be used to maintain stem cells in a more naïve state. In this case primed state stem cells were cultured in bFGF over a layer of MEFs, although it is known that any bFGF containing media will maintain stem cells in the primed state.
Percent inhibition of cancer cell migration was performed in a wound healing assay. The percent area that the invading cancer cells occupied, in the presence of a drug candidate compared to the controls, was quantified by Image J cell software which enables cell counting from photographs. IC50's were calculated by performing migration experiments at several compound concentrations and then applying Hill's equation. Inhibition of cancer cell proliferation was quantified by automated cell counting in the presence or absence of a drug candidate. Here, the inhibition of cancer cell proliferation was scored 1 if proliferation was inhibited by 25%, 2 if inhibited by […] and 4 for the highest degree of inhibition of proliferation, and 0 for the lowest. The effect of the drug candidates on stem cell pluripotency or proliferation was scored by eye, based on cell morphology and cell density, with 0 being no change in morphology or cell number and 4 being the most profound effect, with the stem cells taking on the morphology of a differentiating cell, along with much fewer cells indicative of inhibition of proliferation. As an example, FIGS. 30A-30F show photographs of naïve stem cell, primed stem cell and fibroblast controls. FIGS. 31A-31F show the effect of compounds of the invention on naïve state stem cells, where the number of ‘+’ signs indicates the score from 0-4 of ability of compound to inhibit pluripotency, proliferation of naïve stem cells or ability to induce their differentiation. […] FIGS. 36-44 and 65-87 show photographs and IC50 graphs of the compounds of the invention, inhibiting cancer cell migration and invasion. Cancer cell migration is a hallmark of metastatic cancer.
Stem cells whether embryonic or induced pluripotent stem (iPS) cells were cultured in a minimal, serum-free media that contained human recombinant NME7AB at a concentration of 2-32 nM wherein 4-8 nM is preferred and 4 nM is more preferred. To facilitate surface attachment, cell culture plates were coated with an anti-MUC1* monoclonal antibody called MN-C3 or C3 or MN-C8 at a concentration of 2-100 μg/mL coating solution, wherein 3-50 ug/mL is preferred and 6-12.5 ug/mL is more preferred. In these experiments, 12.5 ug/mL of MN-C3 was used. Antibody coated plates were incubated at 4 degrees C. overnight prior to plating stem cells. A Rho kinase I inhibitor was added to enhance surface attachment. […]

[2] = tested on: micro-RNA-145; experiment: RT-PCR measurement of miR-145 in T47D cancer cells; type: cell-based, human; settings: treated for 72 hours (FIG. 92A-92C)
Procedure: FIGS. 92A-92C show graphs of RT-PCR measurement of T47D cancer cells treated for 72 hours with compounds of the invention at the indicated concentrations, wherein the gene that is measured is micro-RNA-145, which is a harbinger of stem cell differentiation
We used RT-PCR to measure changes in the expression of some of these super-enhancer genes, AXIN2, which is a surrogate for activated β-catenin, miR-145, MUC1 and MUC1* ligands NME7AB and NME7-X1. […] Thus, compounds of the invention, at least in part, inhibit tumor cell migration and invasiveness by inducing expression of genes that are critical for differentiation, some of which are super-enhancer target genes, and miR-145, while decreasing expression of β-catenin, MUC1 and its growth factor NME7AB. Novel compounds of the invention are powerful agents for the treatment or prevention of cancers and metastatic cancers. […] In one aspect of the invention, a biological sample from a patient is tested for the presence of MUC1*, NME7AB or NME7-X1, and upon finding that the patient's cancer is positive for MUC1*, NME7AB or NME7-X1, a compound of the invention is administered to the patient in an amount suitable to prevent or treat the cancer. In one instance, the patient sample is subjected to a test, such as PCR, to determine the amount of nucleic acid that encodes MUC1, NME7 or NME7-X1. […] In another aspect of the invention, the patient's cancer is considered to be MUC1* positive, NME7AB positive or NME7-X1 positive if expression of those genes is equal to or greater than 0.5% of EEF1A1 expression in those cells. In yet another aspect of the invention, the patient's cancer is considered to be MUC1* positive if the patient's tissue specimen is contacted with an antibody that binds to the PSMGFR peptide or the N-10 peptide and stains the tissue with a pathologist's standard score 1-4 (“+−++++”). […]

[3] = tested on: human fibroblasts; experiment: Effect on fibroblasts as surrogate for normal cells; type: cell-based; settings: fibroblasts as surrogate for normal cells; 6 uM
Description: However, fibroblasts are more differentiated than stem cells but are able to self-replicate for defined periods of time. We tested selected compounds of the invention to determine if these compounds were just cytotoxic or if they selectively affected stem cells and, importantly, cancer cells, but not normal, healthy cells. Here, we used fibroblasts as a surrogate for normal cells. […] […] Each compound was scored for its effect on fibroblast proliferation where “+” indicates 25% inhibition of fibroblast growth, “++” 50% inhibition and “+++” 75% inhibition of growth.

| effect on fibroblast cells [3] | Structure (SMILES) | inhibition at 6 µM [1] | score for inhibition of naïve stem cell pluripotency and proliferation [1] | expression of miR-145 in T47D cancer cells [2] |
| --- | --- | --- | --- | --- |
| no effect | C[C@@H]1Cc2c([nH]c3ccccc23)CN1C(=O)C1CCC(CN(C)C(=O)NC(C)(C)C)CC1 (stereo partly drawn) [MN1423] | 100% | 4 | increased expression of miR-145 in cancer cells |
| no effect | CN(C[C@H]1CC[C@H](C(=O)N2CCc3c([nH]c4ccccc34)C2C2CC2)CC1)C(=O)NC(C)(C)C (stereo partly drawn) [MN1413] | 100% | 4 | increased expression of miR-145 in cancer cells |
| no effect | CN(CC1CCC(C(=O)N2CCC(c3ccncc3)CC2)CC1)C(=O)OC(C)(C)C (stereo not drawn) [MN1428, Tert-butyl methyl((4-(4-(pyridin-4-yl)piperidine-1-carbonyl)cyclohexyl)methyl)carbamate] | 100% | 4 | increased expression of miR-145 in cancer cells |
